The source of these data is patent US9688666B2, “Lamivudine salts” (Tobira Therapeutics, Inc., priority 2013, dated 2017).

Holding throughout (format): physicochemical
Series [1] can be described thus: Gravimetric vapor sorption (GVS), hygroscopicity. The following applies: 25 degrees C, relative humidity 0% to 90% in 10% RH increments. The text has this:
A crystalline form can be characterized by gravimetric vapor sorption (GVS). A GVS plot can be a graph of weight gain or loss against relative humidity. The total weight gain or loss is often reported as a weight percent (wt %), the value of which allows for and includes an appropriate margin of error that can be represented by the symbol “±.” For example, a weight change of about 2.0±0.5% can refer to a range from about 2+0.5%, that is, 2.5%, to about […], that is, about 1.5%. Depending on the sample preparation technique, the calibration technique applied to the instrument, human operation variation, the nature of the particular instrument being used, and other factors known to the art, the appropriate margin of error for a weight gain or loss can be about ±2%, about ±1%, about ±0.75%, about ±0.5%, about ±0.25%, or less. Among other things, GVS can be useful for determining whether a crystalline form changes upon exposure to humidity.
Gravimetric vapor sorption plots were obtained on an ‘Iga Sorp’ vapor sorption balance manufactured by Hidden Analytical Instruments, which was calibrated according to manufacturer recommendations. Samples were dried by maintaining a 0% humidity until no additional weight change was measured. […] After equilibration, the weight change was measured, and the RH was then increased by 10% following the above-described equilibration procedure. […]

Series [2] can be described thus: Competitive slurry of Form I/Form II mixture, product examined by XRPD. The following applies: 20 mg Form I + 20 mg Form II suspended in 400 μL acetone or 400 μL isopropanol, shaken at ambient temperature for 72 hours; same result in both cases. The protocol: A first mixture of 20 mg lamivudine hydrochloride polymorph Form I and 20 mg lamivudine hydrochloride polymorph Form II was suspended in 400 μL of acetone, and a second mixture of 20 mg lamivudine hydrochloride polymorph Form I and 20 mg lamivudine hydrochloride polymorph Form II was suspended in 400 μL isopropanol. Both mixtures were shaken at ambient temperature for 72 hours, after which the resulting product was examined by XRPD. In both cases, the resulting product an XRPD diffraction pattern substantially similar to that of FIG. 6.

The nature of series [3]: Storage stability at ambient temperature and humidity, XRPD before and after. The following applies: stored in a cupboard at ambient temperature and humidity for 16 weeks. The protocol: A sample of lamivudine hydrochloride polymorph Form II was analyzed by XRPD, and then stored in a cupboard at ambient temperature and humidity for 16 weeks, after which the sample was re-analyzed by XRPD. FIG. 32 compares the XRPD pattern obtained before storage (top pattern) and after 16 weeks of storage (middle pattern) with the XRPD pattern of lamivudine hydrochloride polymorph Form I obtained by the method of Example 1 (bottom pattern).

Bounds are passed on as bounds.

Consider `Cl.Nc1ccn([C@@H]2CS[C@H](CO)O2)c(=O)n1` [listing 1 of 2 here], for which the “GVS reversible weight gain” value in series [1] was not above 1%.
For the compound `Cl.Nc1ccn([C@@H]2CS[C@H](CO)O2)c(=O)n1` [listing 2 of 2 here], the “relative thermodynamic stability of polymorphs (form of product by XRPD)” value in series [2] is “less thermodynamically stable than, and transforming into, lamivudine hydrochloride polymorph Form I”. For the same compound, the “solid form stability on storage (XRPD)” value in series [3] is on record as “spontaneously converting to lamivudine hydrochloride polymorph Form I after 16 weeks of storage”.
